Measured values as given in patent US6369103B1, “Method for preventing or reducing risk of onset of cardiovascular events employing an HMG CoA reductase inhibitor” (Bristol-Myers Squibb Company, priority 1994, dated 2002).
Like-named read-outs stand apart in the source and are kept apart here.

Assays:
[1] = system: patients with primary hypercholesterolemia and ≧2 additional risk factors for coronary artery disease; test: Multinational randomized double-blind placebo-controlled trial: effects on plasma lipids; type: in vivo, human; conditions: for LDL cholesterol, Mean ± SEM: calculated (Friedewald)
Description: J. Cardiology Vol. 72, Nov. 1, 1993, 1031-1036. […] Lipid analyses were performed at local laboratories and a central laboratory. […] The LDL cholesterol concentration was calculated using the Friedewald equation converted to mmol/liter: […] To assess the comparability of treatment groups, baseline values and demographic characteristics for all randomized patients were summarized for each treatment group by descriptive statistics. The primary efficacy variables were the serum lipids analyzed at local laboratories at weeks 0, 6, 13 and 26. All values were transformed to natural logarithms for the analysis. Geometric means were used to summarize lipid values by treatment group at each visit. Treatment groups were compared by analysis of covariance of change from baseline in transformed values with baseline as a covariate.

[2] = system: patients with primary hypercholesterolemia and ≧2 additional risk factors for coronary artery disease; conditions: in vivo
Description: (§1) The efficacy and long-term safety of pravastatin in hypercholesterolemic patients were investigated in this multicenter, randomized, double-blind placebo-controlled trial. After dietary stabilization and recommendations for lifestyle modification during a 6-week placebo lead-in period, patients were randomized to receive pravastatin 20 mg or placebo at bedtime. After 13 weeks, patients who responded (defined as a decrease in total cholesterol level by >15% from baseline or to <5.2 mmol/liter [200 mg/dl]) to treatment continued on the same study medication for 13 additional weeks. […] Compliance with dietary instructions and other lifestyle counseling were periodically assessed. After completing the initial 26-week period, patients were given the option to continue in an additional 26-week double-blind phase and, following the first 52 weeks, a final 26-week period that was open-label for pravastatin in patients originally assigned to that treatment group. Additional lipid-lowering medications, except other 3-hydroxy-3-methylglutaryl coenzyme A reductase inhibitors and fibrates, could be added to patients not meeting treatment goals at the end of the first 26 weeks. Fibrates could be added in the open-label period of the study in patients originally assigned placebo.
(§2) After ≧4 weeks of dietary stabilization, 2 qualifying blood samples for the lipid profile were drawn approximately 1 week apart after an overnight fast of ≧10 hours. Seated systolic and diastolic blood pressures were recorded at 2 weeks and 1 week before randomization; other risk factors were assessed 1 week before randomization. Baseline lipid and laboratory safety tests, blood pressure and body weight measurements, and an ophthalmologic evaluation (including visual acuity and determination of lenticular opacities) were performed at randomizations. The presence of concurrent disease and the use of concomitant medications were also recorded. When patients returned for clinic visits at weeks 6, 13 and 26, body weight and blood pressure were measured, morning samples for lipid profiles and laboratory safety tests were drawn, and clinical adverse events and concomitant medications were recorded. Drug compliance (by tablet count) was assessed and the ophthalmologic evaluation was repeated at weeks 13 and 26.
Laboratory safety tests were performed by local laboratories and consisted of hematology (hemoglobin, red blood cell count, hematocrit, platelet count, and white blood cell count and differential) and blood chemistries (urea, creatinine, uric acid, calcium, total bilirubin, alkaline phosphatase, aspartate aminotransferase, alanine aminotransferase, γ-glutamyl aminotransferase, total protein, albumin and creatine kinase).
The incidence of adverse events in each treatment group was summarized by body system and individual events. In addition, events predefined by the protocol to be serious, e.g., fatal events or events leading to or prolonging hospitalization, were tabulated. Hematology and biochemistry variables were summarized and analyzed by geometric means and analysis of covariance of change from baseline. Ophthalmologic results were summarized in terms of the number of lenticular opacities present at baseline and at weeks 13 and 26. […] Differences in the incidence of adverse events were typically analyzed by the chi-square test with the Fisher's exact test used for rare events. Results were reported as statistically significant if a 2-sided p value ≦0.05 was attained.

[3] = system: patients with primary hypercholesterolemia and ≧2 additional risk factors for coronary artery disease; conditions: for Sudden cardiac death, number / Myocardial infarction (fatal and nonfatal), number: n = 530; for Myocardial infarction (fatal and nonfatal), number: p = 0.031 vs placebo
Description: This example describes a large multinational study, “Effects of Pravastatin in Patients with Serum Total Cholesterol Levels from 5.2 to 7.8 mmol/liter (200 to 300 mg/dl) Plus Two Additional Atherosclerotic Risk Factors,” The Pravastatin Multinational Study Group for Cardiac Risk Patients, reported in Am. J. Cardiology Vol. 72, Nov. 1, 1993, 1031-1036. The study was designed to examine the efficacy and safety of pravastatin, together with diet modification and advice on smoking, in patients with primary hypercholesterolemia and ≧2 additional risk factors for coronary artery disease (CAD).
as §1
The protocol was approved by each local ethics committee, and patients gave informed consent before randomization. The study population was to be limited to men and postmenopausal or surgically sterile women 20 to 69 years old. At entry, patients were to have a serum total cholesterol concentration between 5.2 and 7.8 mmol/liter (200 and 300 mg/dl) despite dietary intervention as well as ≧2 additional risk factors for CAD as defined in the protocol (male gender, systemic hypertension, cigarette smoking, family history of CAD, prior myocardial infarction, or history of angina pectoris). Exclusion criteria included (1) a history of homozygous familial hypercholesterolemia; (2) types I, III, IV or V hyperlipoproteinemia; (3) significant metabolic, renal, hepatic or endocrine disease; (4) history of drug abuse; or (5) obesity (>40% above ideal body weight). Patients were also excluded if, within 8 weeks of randomization, they were taking cortico-steroids immunosuppressive drugs, investigational drugs, androgens, or estrogens and progestins for indications other than replacement therapy.
as §2

[4] = system: patients with primary hypercholesterolemia and ≧2 additional risk factors for coronary artery disease; conditions: Pearson et al. commentary, cited from earlier work
[5] = baseline to Week 26, p<0.001 vs placebo
[6] = end of initial 26 weeks, 20 to 40 mg once daily (average dose 26.5 mg)
[7] = week 13, 20 mg at bedtime, p<0.001 compared with placebo
[8] = first 26 weeks, listed as Pravastatin

CC[C@H](C)C(=O)O[C@H]1C[C@H](O)C=C2C=C[C@H](C)[C@H](CC[C@@H](O)C[C@@H](O)CC(=O)O)[C@H]21 [pravastatin]
LDL cholesterol, Mean ± SEM ([1]; Baseline, n=499): 4.69 ± 1.05 mmol/L
HDL cholesterol, Mean ± SEM ([1]; Baseline, n=500): 1.14 ± 0.35 mmol/L
Triglycerides, Mean ± SEM ([1]; Baseline, n=520): 1.77 ± 0.82 mmol/L
Total cholesterol, Mean ± SEM ([1]; Baseline, n=521): 6.81 ± 0.78 mmol/L
HDL cholesterol, Mean ± SEM ([1]; Week 26, n=459): 1.23 ± 0.37 mmol/L
LDL cholesterol, Mean ± SEM ([1]; Week 26, n=459): 3.47 ± 0.74 mmol/L
Total cholesterol, Mean ± SEM ([1]; Week 26, n=483): 5.55 ± 0.82 mmol/L
Triglycerides, Mean ± SEM ([1]; Week 26, n=483): 1.56 ± 0.74 mmol/L
LDL cholesterol, % Change [1, 5]: −26.01%
Total cholesterol, % Change [1, 5]: −18.50%
Triglycerides, % Change [1, 5]: −11.86%
HDL cholesterol, % Change ([1]; baseline to Week 26, p<0.005 vs placebo): 7.90%
increase in HDL cholesterol concentrations [1, 6]: 8%
reduction in LDL cholesterol [1, 6]: 26%
reduction in total cholesterol [1, 6]: 19%
reduction in triglycerides [1, 6]: 12%
elevation in HDL cholesterol [1, 7]: 7%
reduction in LDL cholesterol [1, 7]: 26%
reduction in total cholesterol [1, 7]: 19%
reduction in triglycerides [1, 7]: 12%
patients who achieved the target cholesterol goal ([1]; week 13, goal: total cholesterol decrease >15% from baseline or to <5.2 mmol/liter): 66%
number of patients who achieved the target cholesterol goal ([1]; week 13, of 491 patients): 326
patients who attained an LDL cholesterol concentration of ≦3.4 mmol/liter (130 mg/dl) ([1]; week 26): 47%
patients with elevations of creatine kinase values to >4 times pretreatment values ([2]; both, human): 2.6%
patients with elevations of creatine kinase values to >4 times pretreatment values, number ([2]; both, human): 14
patients with transient, asymptomatic elevations of hepatic transaminases to >3 times the upper limit of normal ([2]; both, human): 1.1%
patients with transient, asymptomatic elevations of hepatic transaminases to >3 times the upper limit of normal, number ([2]; both, human): 6
magnitude of the increases in alanine aminotransferase, aspartate aminotransferase and creatine kinase [2]: 3-12%
mean level of alanine aminotransferase [2]: 16.02 U/liter
mean level of aspartate aminotransferase [2]: 17.24 U/liter
mean level of creatine kinase [2]: 70.62 U/liter
syndrome of drug-induced myopathy (myalgia with creatine kinase >10 times upper limits of normal) [2]: not observed in any patient
changes in visual acuity (without correction) and incidence of new ocular opacities ([3]; both, human, in vivo): limited and similar in the 2 treatment groups
Acute congestive heart failure, number ([3]; both, human, in vivo, 26 weeks): 1
Central nervous system serious adverse events, Subtotal ([3]; both, human, in vivo, 26 weeks): 0
Cerebral infarction, number ([3]; both, human, in vivo, 26 weeks): 0
Other serious adverse events, Subtotal ([3]; both, human, in vivo, 26 weeks): 4
Other serious adverse events: Diabetes, number ([3]; both, human, in vivo, 26 weeks): 1
Other serious adverse events: Gastrointestinal, number ([3]; both, human, in vivo, 26 weeks): 2
Other serious adverse events: Peripheral arterial disease, number ([3]; both, human, in vivo, 26 weeks): 1
Other serious adverse events: Pulmonary, number ([3]; both, human, in vivo, 26 weeks): 0
Serious cardiovascular adverse events ([3]; both, human, in vivo, 26 weeks): 0.2%
Serious cardiovascular adverse events (Subtotal), number ([3]; both, human, in vivo, 26 weeks): 1
Surgery serious adverse events, Subtotal ([3]; both, human, in vivo, 26 weeks): 1
Surgery: Abdominal (hernia), number ([3]; both, human, in vivo, 26 weeks): 0
Surgery: Breast, number ([3]; both, human, in vivo, 26 weeks): 0
Surgery: Coronary artery bypass graft, number ([3]; both, human, in vivo, 26 weeks): 0
Surgery: Joint (knee), number ([3]; both, human, in vivo, 26 weeks): 1
Syncope, number ([3]; both, human, in vivo, 26 weeks): 0
Total of all serious adverse events, number of events ([3]; both, human, in vivo, 26 weeks): 6
Transient ischemic attack, number ([3]; both, human, in vivo, 26 weeks): 0
Unstable angina leading to hospitalization, number ([3]; both, human, in vivo, 26 weeks): 0
cardiovascular clinical adverse events ([3]; both, human, in vivo, 26 weeks): 2.8%
cardiovascular clinical adverse events, number ([3]; both, human, in vivo, 26 weeks): 15
patients reporting adverse events ([3]; both, human, in vivo, 26 weeks): 22.6%
patients reporting adverse events, number ([3]; both, human, in vivo, 26 weeks): 120
patients with serious adverse events ([3]; both, human, in vivo, 26 weeks): 0.9%
patients with serious adverse events, number ([3]; both, human, in vivo, 26 weeks): 5
patients withdrawn from the study because of an adverse event ([3]; both, human, in vivo, 26 weeks): 4.7%
adverse events thought to be related to pravastatin administration, number ([3]; both, human, in vivo, 52 weeks): 1
cases of unstable angina, number ([3]; both, human, in vivo, 52 weeks): 1
patients reporting clinical adverse events ([3]; both, human, in vivo, 52 weeks): 18.5%
patients reporting clinical adverse events, number ([3]; both, human, in vivo, 52 weeks): 55
patients who withdrew because of adverse events ([3]; both, human, in vivo, 52 weeks): 1.7%
episodes of unstable angina, number ([3]; both, human, in vivo, 78 weeks): 1
myocardial infarctions, number ([3]; both, human, in vivo, 78 weeks): 1
Sudden cardiac death, number ([3]; first 26 weeks): none
Sudden cardiac death, number [3, 8]: 0
Myocardial infarction (fatal and nonfatal), number ([3]; first 26 weeks): no patient and none
Myocardial infarction (fatal and nonfatal), number [3, 8]: 0
deaths ([3]; first 26 weeks, three placebo-treated patients died): no pravastatin-treated patient died
Total of all serious adverse events, number of events ([3]; human, in vivo): Six
patients who sustained myocardial infarctions, number ([3]; human, in vivo): One
patients who withdrew because of adverse events, number ([3]; human, in vivo): Five
patients withdrawn because of angioedema thought to be possibly related to drug therapy, number ([3]; human, in vivo): One
patients withdrawn because of creatine kinase elevation or musculoskeletal events, number ([3]; human, in vivo): Three
patients withdrawn from the study because of an adverse event, number ([3]; human, in vivo): Twenty-five
serious cerebrovascular events ([3]; human, in vivo): none
total incidence of clinical adverse events, pravastatin vs placebo ([3]; human, in vivo): no differences
deaths ([3]; long-term portion of the trial): no deaths
medical and surgical events in the coronary and cerebrovascular beds, number ([4]; first 26 weeks, 21 in the placebo group): 1
cases of myocardial infarction or unstable angina, number ([4]; over the 78 weeks of the study, 16 in the placebo group): 2
